PubChem BioAssay AID1963828 (Molecular Pharmacology Branch, DTP, NCI, 2024)
pIC50: −log10 of the molar value.

System: 991263-137-R1-J2-PDC complex spheroid viability
Experiment: Anticancer human tumor 991263-137-R1-J2-PDC patient-derived colon adenocarcinoma cell line growth inhibition [POLQ]
Conditions: for pIC50: curve of first compound; for viability, T/C: stronger effect = lower value
How it was run: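 Growth inhibition in 3D: complex spheroids (tumor PDC, HUVEC, MSC) treated with POLQ inhibitor combinations; where Cmax unknown, highest tested concentration 10 microM, except SN-38 at 1 microM.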

[1] = second compound 0.0316 µM, first compound 0.0316 µM
[2] = second compound 0.0316 µM, first compound 0.1 µM
[3] = second compound 0.0316 µM, first compound 0.316 µM
[4] = second compound 0.0316 µM, first compound 1 µM
[5] = second compound 0.0316 µM, first compound 3.16 µM
[6] = second compound 0.0316 µM, first compound 10 µM
[7] = second compound 0.1 µM, first compound 0.0316 µM
[8] = second compound 0.1 µM, first compound 0.1 µM
[9] = second compound 0.1 µM, first compound 0.316 µM
[10] = second compound 0.1 µM, first compound 1 µM
[11] = second compound 0.1 µM, first compound 3.16 µM
[12] = second compound 0.1 µM, first compound 10 µM
[13] = second compound 0.316 µM, first compound 0.0316 µM
[14] = second compound 0.316 µM, first compound 0.1 µM
[15] = second compound 0.316 µM, first compound 0.316 µM
[16] = second compound 0.316 µM, first compound 1 µM
[17] = second compound 0.316 µM, first compound 3.16 µM
[18] = second compound 0.316 µM, first compound 10 µM
[19] = second compound 1 µM, first compound 0.0316 µM
[20] = second compound 1 µM, first compound 0.1 µM
[21] = second compound 1 µM, first compound 0.316 µM
[22] = second compound 1 µM, first compound 1 µM
[23] = second compound 1 µM, first compound 3.16 µM
[24] = second compound 1 µM, first compound 10 µM
[25] = second compound 3.16 µM, first compound 0.0316 µM
[26] = second compound 3.16 µM, first compound 0.1 µM
[27] = second compound 3.16 µM, first compound 0.316 µM
[28] = second compound 3.16 µM, first compound 1 µM
[29] = second compound 3.16 µM, first compound 3.16 µM
[30] = second compound 3.16 µM, first compound 10 µM
[31] = second compound 10 µM, first compound 0.0316 µM
[32] = second compound 10 µM, first compound 0.1 µM
[33] = second compound 10 µM, first compound 0.316 µM
[34] = second compound 10 µM, first compound 1 µM
[35] = second compound 10 µM, first compound 3.16 µM
[36] = second compound 10 µM, first compound 10 µM
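Note: spheroids exposed to compounds for 7 days before readout.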
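Throughout, for viability, T/C: 100% = DMSO vehicle control viability.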

Work on Nc1ccn(C2OC(CO)C(O)C2(F)F)c(=O)n1 (stereo unspecified) + Nc1ccc(C#CCN(C(=O)Cc2ncc(C(F)(F)F)cc2C(F)(F)F)c2ccc(F)cc2)nn1 yielded a pIC50 (second compound 0.0316 µM) of 5.24, a pIC50 (second compound 0.1 µM) of less than 5.00 and a pIC50 (second compound 0.316 µM) of 5.28. For the same molecule, the pIC50 (second compound 1 µM) was less than 5.00, the pIC50 (second compound 3.16 µM) was less than 5.00 and the pIC50 (second compound 10 µM) was less than 5.00. The viability, T/C [1] was 96.1%, the viability, T/C [2] was 75.6% and the viability, T/C [3] was 64.4%. It also gave a viability, T/C [4] of 58.4%, a viability, T/C [5] of 55.2% and a viability, T/C [6] of 45.8%. The viability, T/C [7] was 89.6%, the viability, T/C [8] was 77.5% and the viability, T/C [9] was 59.2%. The viability, T/C [10] was 61.7%, the viability, T/C [11] was 59.9% and the viability, T/C [12] was 47.6%. The viability, T/C [13] was 94.3%, the viability, T/C [14] was 74.1% and the viability, T/C [15] was 65.9%. The viability, T/C [16] was 64.2%, the viability, T/C [17] was 57.3% and the viability, T/C [18] was 43.1%. It also gave a viability, T/C [19] of 92.6%, a viability, T/C [20] of 68.3% and a viability, T/C [21] of 69.5%. It also gave a viability, T/C [22] of 59.8%, a viability, T/C [23] of 55.8% and a viability, T/C [24] of 50.2%. For the same molecule, the viability, T/C [25] was 104%, the viability, T/C [26] was 82.1% and the viability, T/C [27] was 69.4%. It also gave a viability, T/C [28] of 62.5%, a viability, T/C [29] of 63.4% and a viability, T/C [30] of 51.2%. The viability, T/C [31] was 104%, the viability, T/C [32] was 89.6% and the viability, T/C [33] was 71.1%. The viability, T/C [34] was 69.5%, the viability, T/C [35] was 64.3% and the viability, T/C [36] was 60.7%.

O=C(c1cc(Cc2n[nH]c(=O)c3ccccc23)ccc1F)N1CCN(C(=O)C2CC2)CC1 + Nc1ccc(C#CCN(C(=O)Cc2ncc(C(F)(F)F)cc2C(F)(F)F)c2ccc(F)cc2)nn1 gave a pIC50 (second compound 0.0316 µM) of less than 5.00, a pIC50 (second compound 0.1 µM) of less than 5.00 and a pIC50 (second compound 0.316 µM) of less than 5.00. The pIC50 (second compound 1 µM) was less than 5.00, the pIC50 (second compound 3.16 µM) was less than 5.00 and the pIC50 (second compound 10 µM) was less than 5.00. It also gave a viability, T/C [1] of 105%, a viability, T/C [2] of 101% and a viability, T/C [3] of 90.1%. The viability, T/C [4] was 98.5%, the viability, T/C [5] was 98.2% and the viability, T/C [6] was 99.8%. It also gave a viability, T/C [7] of 101%, a viability, T/C [8] of 97.4% and a viability, T/C [9] of 90.3%. For the same molecule, the viability, T/C [10] was 96.1%, the viability, T/C [11] was 110% and the viability, T/C [12] was 90%. For the same molecule, the viability, T/C [13] was 106%, the viability, T/C [14] was 104% and the viability, T/C [15] was 93.8%. The viability, T/C [16] was 97%, the viability, T/C [17] was 101% and the viability, T/C [18] was 97.2%. It also gave a viability, T/C [19] of 104%, a viability, T/C [20] of 96.1% and a viability, T/C [21] of 94.3%. The viability, T/C [22] was 90.3%, the viability, T/C [23] was 105% and the viability, T/C [24] was 90.4%. For the same molecule, the viability, T/C [25] was 103%, the viability, T/C [26] was 103% and the viability, T/C [27] was 95.4%. The viability, T/C [28] was 100%, the viability, T/C [29] was 105% and the viability, T/C [30] was 105%. For the same molecule, the viability, T/C [31] was 95.5%, the viability, T/C [32] was 93.6% and the viability, T/C [33] was 104%. For the same molecule, the viability, T/C [34] was 96.7%, the viability, T/C [35] was 97.1% and the viability, T/C [36] was 102%.

O=c1[nH]cc(F)c(=O)[nH]1 + Nc1ccc(C#CCN(C(=O)Cc2ncc(C(F)(F)F)cc2C(F)(F)F)c2ccc(F)cc2)nn1 gave a pIC50 (second compound 0.0316 µM) of less than 5.00, a pIC50 (second compound 0.1 µM) of less than 5.00 and a pIC50 (second compound 0.316 µM) of less than 5.00. For the same molecule, the pIC50 (second compound 1 µM) was less than 5.00, the pIC50 (second compound 3.16 µM) was less than 5.00 and the pIC50 (second compound 10 µM) was less than 5.00. The viability, T/C [1] was 118%, the viability, T/C [2] was 112% and the viability, T/C [3] was 96.5%. For the same molecule, the viability, T/C [4] was 97.1%, the viability, T/C [5] was 89.4% and the viability, T/C [6] was 89.3%. It also gave a viability, T/C [7] of 113%, a viability, T/C [8] of 115% and a viability, T/C [9] of 96%. The viability, T/C [10] was 101%, the viability, T/C [11] was 87% and the viability, T/C [12] was 80.9%. For the same molecule, the viability, T/C [13] was 94.5%, the viability, T/C [14] was 104% and the viability, T/C [15] was 101%. The viability, T/C [16] was 93%, the viability, T/C [17] was 85.6% and the viability, T/C [18] was 86.1%. For the same molecule, the viability, T/C [19] was 117%, the viability, T/C [20] was 114% and the viability, T/C [21] was 111%. It also gave a viability, T/C [22] of 90.2%, a viability, T/C [23] of 92.4% and a viability, T/C [24] of 86%. It also gave a viability, T/C [25] of 116%, a viability, T/C [26] of 106% and a viability, T/C [27] of 86.9%. For the same molecule, the viability, T/C [28] was 89%, the viability, T/C [29] was 92.2% and the viability, T/C [30] was 78.4%. The viability, T/C [31] was 126%, the viability, T/C [32] was 101% and the viability, T/C [33] was 92.6%. It also gave a viability, T/C [34] of 85%, a viability, T/C [35] of 83.4% and a viability, T/C [36] of 84.9%.
